Reference: patent US20240263128A1, “METHOD OF PRODUCING BIOLOGICAL MATERIAL” (NIPPON TELEGRAPH AND TELEPHONE CORPORATION, priority 2021, published 2024)

Assays:
Cyanidiosyzon merolae [1] = experiment: Fat and oil accumulation in unicellular red algae (BODIPY staining, fluorescence microscopy); assay type: cell-based; details: 2 mmol/L dimethyl 2-oxoglutarate, MA2 culture medium, suspension culture under light, 24 hours after addition, compared with culture without promoter; FIG. 2 vs FIG. 4
Method: Unicellular red algae were cultured in suspension under a light condition and a promoter was added thereto. An MA2 culture medium was used as a culture medium. Cyanidiosyzon merolae were used as unicellular red algae. Dimethyl 2-oxoglutarate was used as a promoter. The promoter was added so that the final concentration of dimethyl 2-oxoglutarate would be 2 mmol/L. After the addition of the promoter, the cultivation was continued for 24 hours more. Thereafter, a bright field image was obtained for the cultured unicellular red algae using a microscope. In addition, the fat and oil of the unicellular red algae were stained with commercially available BODIPY (registered trademark) from the Cosmo Bio, Inc. Then, a fluorescence observation image of the unicellular red algae with stained fat and oil was acquired by using a fluorescence microscope. In addition, cultivation was similarly conducted as described above except that no promoter was added. Then, acquisition of a bright field image, staining of fat and oil, and acquisition of a fluorescence observation image were carried out also for the cultured unicellular red algae.

Cyanidiosyzon merolae [2] = experiment: Amount of starch in unicellular red algae after cultivation; assay type: cell-based; details: 2 mmol/L dimethyl 2-oxoglutarate, MA2 culture medium, suspension culture under light, 24 hours after addition, compared with control without promoter; average of three independent tests, FIG. 5
Method: Unicellular red algae were cultured in suspension under a light condition and a promoter was added thereto. An MA2 culture medium was used as a culture medium. Cyanidiosyzon merolae were used as unicellular red algae. Dimethyl 2-oxoglutarate was used as a promoter. The promoter was added so that the final concentration of dimethyl 2-oxoglutarate would be 2 mmol/L. After the addition of the promoter, the cultivation was continued for 24 hours more. Thereafter, a bright field image was obtained for the cultured unicellular red algae using a microscope. In addition, the fat and oil of the unicellular red algae were stained with commercially available BODIPY (registered trademark) from the Cosmo Bio, Inc. Then, a fluorescence observation image of the unicellular red algae with stained fat and oil was acquired by using a fluorescence microscope. The same cultivation as in test 1 was performed, and the amount of starch contained in the unicellular red algae after the cultivation was determined. FIG. 5 is a graph showing an example of the influence of addition of a promoter on the amount of accumulation of starch. […] In FIG. 5, “control” represents the results obtained for the unicellular red algae cultured without adding a promoter to the culture medium. […]

Q: For COC(=O)CCC(=O)C(=O)OC [promoter, dimethyl 2-oxoglutarate], which “accumulation of fat and oil (fluorescence caused by BODIPY staining)” value (Cyanidiosyzon merolae [1]) is on record?
A: Its value is “greatly promoted”.

Q: What about the “amount of accumulation of starch” value (Cyanidiosyzon merolae [2]) of the same compound?
A: The value was “greatly promoted”.
